Source: PMC6291738, “Identification of novel HIV-1-derived HLA-E-binding peptides” (Immunology Letters, 2018)
Several values for one entry are separate records, joined by “and”; a condition that tells them apart may be missing. Identical values can stand only once. No end group written: not given here.

How the values were obtained:
HLA-E*01:01 [1] = target: T1, HLA-E*01:01 (Homo sapiens, UniProt P13747, G128R); assay: HLA-E/peptide cell-surface stabilization (binding) assay, RMA-S cells transfected with HLA-E*01:01; assay type: cell-based; set-up: RMA-S cells expressing HLA-E*01:01 and E*01:03 were generated by transfecting the genes into the RMA-S cell line; expressed in transfected cells; host or cells: murine TAP-deficient RMA-S cells; details: RMA-S cells with HLA-E*01:01 and human β2-microglobulin; overnight 26 °C, peptide 1 h 26 °C, 3 h 37 °C; peptide 100 μg/ml; Index = (Sample 37 °C – No peptide 37 °C)/(Sample 26 °C – No peptide 26 °C); flow cytometry
Description: (§1) Binding of PM9 to both HLA-E*01:01 and –E*01:03 alleles was assessed using an HLA-E/peptide cell-surface stabilization assays. Thus, murine RMA-S cells deficient in transporter associated with antigen processing (TAP) were stably transfected with one of the two HLA-E alleles together with human β2-microglobuline. Then, stabilization of HLA-E/PM9 and HLA-E/VL9 complexes was compared in peptide-titration analyses using peptide concentrations ranging from 0.01 μg/ml to 100 μg/ml by growing transfected RMA-S cells overnight at 26 °C, pulsing them with peptide for 1 h and transferring them to 37 °C for 3 additional hours. Weak half-maximal effective concentrations (EC50) of over 100 μM were indicated for the interaction of PM9 with the two HLA-E*01:01 and E*01:03 molecules (Fig. 1A).

HLA-E*01:03 [2] = target: T2, HLA-E*01:03 (Homo sapiens, UniProt P13747); assay: HLA-E/peptide cell-surface stabilization (binding) assay, RMA-S cells transfected with HLA-E*01:03; assay type: cell-based; set-up: RMA-S cells expressing HLA-E*01:01 and E*01:03 were generated by transfecting the genes into the RMA-S cell line; expressed in transfected cells; host or cells: murine TAP-deficient RMA-S cells; details: for Cell-Surface Stabilization Index E*01:03 ± SD: RMA-S cells with HLA-E*01:03 and human β2-microglobulin, overnight 26 °C, peptide 1 h 26 °C, 3 h 37 °C, peptide 100 μg/ml, Index = (Sample 37 °C – No peptide 37 °C)/(Sample 26 °C – No peptide 26 °C), mean ± SD n=3
Description: as §1

HLA-E*01:03 [3] = target: T2, HLA-E*01:03; details: summary of both assays
Mamu-E*02:04 = assay: Single-chain peptide-β2-microglobulin-MHC-E trimer stabilization assay, HEK 293T cells, Mamu-E*02:04; assay type: cell-based, rhesus macaque (Macaca mulatta); details: transiently transfected HEK 293T cells; mAb 4D12
Description: (§2) The chimeric genes coding for the single-chain peptide-β2-microblobuline-MHC-E trimers were constructed as described previously. Briefly, the DNA fragment coding the tested peptide was inserted downstream of the fragment coding for the signal sequence of HLA-E*01:01 followed by coding sequences for a flexible linker [G4S]4, β2-microglobulin and the desired heavy chain of MHC-E. […] to accommodate for the flexible linker. The assembled plasmids were then transfected into HEK 293 T cells maintained between 10% and 90% confluency at 37 °C, 5% CO2 in DMEM (Life Technologies) supplemented with 10% FBS (SeraLabs), and 50 units/ml Penicillin/50 μg/ml Streptomycin (Life Technologies). Transfections were carried out in 6-well plates using GeneJuice (Millipore) as per the manufacturer’s instructions.
(§3) To further confirm PM9-interaction with the MHC-E molecules, we employed an assay based on cell-surface stabilization of single-chain peptide-β2-microblobuline-MHC-E trimers. Briefly, a DNA fragment coding for the tested peptide, here PM9, was inserted downstream of an HLA-E leader peptide and was followed by flexible [G4S]4 linker, β2-microblobuline and Y84 A point-mutated MHC-E heavy chain, which accommodated the flexible linker (Fig. 1B left). […]

CD8+ HC092 STCL cells = assay type: cell-based, human; details: PM9-pulsed LCL721.221 HLA-B*18:01 transfectant; volunteer 410
Description: Cryopreserved PBMCs were thawed and cultures set up at 1–3 × 10^6 cells/ml in culture medium containing 1.5 μg/ml 15-mer ‘parental’ peptide and 25 ng/ml IL-7 (R & D Systems). Cultures were supplemented with 100 IU/ml IL-2 (R&D Systems) on day 3, and IL-2 plus fresh culture medium on day 7. On day 10, the cells were washed three times with culture medium, re-suspended in 1 ml of medium and placed at 37 °C, 5% CO2 for 48 h to rest prior to the ICS assay.
LCL 721.221 cell lines expressing a single HLA allele were prepulsed with corresponding peptides, added to the STCLs in a 96-well plate at 37 °C for 2 h. […]
The first-generation candidate T-cell vaccine against HIV-1 employing conserved regions of the HIV-1 proteome was tested in HIV-1-negative adults in trial HIV−CORE 002 and induced robust HIV-1-specific T-cell responses. These responses were detected by pools of 15-mer peptides overlapping by 11 amino acids across the full length of the HIV-1-derived vaccine immunogen. […] In particular, HLA restriction was determined by expanding volunteer’s PBMC with stimulatory ‘parental’ peptide […] […]

[4] = system: CD8+ T cells of HIV-1-infected patients; assay: Search for PM9-specific HLA-E-restricted CD8+ T-cell responses in natural HIV-1 infection; assay type: cell-based, human; details: PBMC of 32 treatment-naïve patients chronically infected with HIV-1; barely detectable response
Description: Cryopreserved PBMCs from 32 treatment-naïve Japanese individuals chronically infected with HIV-1 subtype B were recruited from the National Center for Global Health and Medicine. All volunteers gave written informed consent before participation. The study was approved by the ethics committees of Kumamoto University and the National Center for Global Health and Medicine. Informed consent was obtained from all individuals according to the Declaration of Helsinki. Plasma and PBMCs were separated from whole blood. HLA types of the individuals were determined by standard sequence-based genotyping.
So far, we were unable to confirm existence of vaccine- or natural HIV-1 infection-elicited CD8^+ T lymphocytes recognizing HIV-1-derived peptides through their TCR and this is not for lack of trying. […] Since humans infected with M. tuberculosis have readily detectable CD8^+ T cells specific for HLA-E-presented M. tuberculosis peptides, perhaps search for such HLA-E-restricted HIV-1-specific CD8 T cells in dually HIV-1- and M. tuberculosis co-infected individuals might yield some interesting results.

HLA-E*01:03 [5] = target: T2, HLA-E*01:03; assay: Single-chain peptide-β2-microglobulin-MHC-E trimer stabilization assay, HEK 293T cells, HLA-E*01:03; assay type: cell-based; set-up: expressed in transfected cells; details: transiently transfected HEK 293T cells; for HLA-E*01:03 single-chain trimer surface stabilization: mAb 3D12, compared with VL9 and irrelevant peptide
Description: as §2
To further confirm PM9-interaction with the MHC-E molecules, we employed an assay based on cell-surface stabilization of single-chain peptide-β2-microblobuline-MHC-E trimers. Briefly, a DNA fragment coding for the tested peptide, here PM9, was inserted downstream of an HLA-E leader peptide and was followed by flexible [G4S]4 linker, β2-microblobuline and Y84 A point-mutated MHC-E heavy chain, which accommodated the flexible linker (Fig. 1B left). […] From these experiments, we concluded that the PM9 peptide bound to HLA-E molecules, and stabilized and increased the HLA-E expression on the cell surface.
Fig. 2 Identification of HLA-E-binding peptides in a single-chain trimer stabilization assay. A single chain peptide-β2-microglobuline-MHC-E heavy chain trimer stabilization assay was employed to determine the candidate 9-mer peptide binding to HLA-E*01:03 (brown line) and compared to that induced by VL9 (yellow area) and irrelevant (pink area) peptide. Expression of trimer on transiently transfected into HEK 293T cells was assessed using a […] 3D12 mAb in flow cytometry. Please see gating strategy in Fig. S3.

HLA-E*01:01 [6] = target: T1, HLA-E*01:01; assay: Single-chain peptide-β2-microglobulin-MHC-E trimer stabilization assay, HEK 293T cells, HLA-E*01:01; assay type: cell-based; set-up: expressed in transfected cells; details: transiently transfected HEK 293T cells; mAb 3D12
Description: as §2, §3

Row | Sequence | Cell-Surface Stabilization Index E*01:01 (HLA-E*01:01 [1]) | Cell-Surface Stabilization Index E*01:03 ± SD (HLA-E*01:03 [2]) | other results
1 | GHQAAMQMLKDTINE | 0.27 | 0.455 ± 0.033 | 
2 | VYYRDSRDPIWKGPA [C376, tHIVconsvX 15-mer peptide […]] | 0.22 | 0.366 ± 0.044 | 
3 | NEEAAEWDR [NR9] |  |  | HLA-E binder classification across the SCT assay and the LCL721.221-HLA-E*01:03 assay (MFI over 4000) (HLA-E*01:03 [3]): positive stabilization signal in at least one of the two employed assays
4 | VYYRDSRDPLWKGPA [C377, tHIVconsvX 15-mer peptide […]] | 0.17 | 0.353 ± 0.039 | 
5 | PQDLNMMLNIVGGHQ [C026, tHIVconsvX 15-mer peptide […]] | 0.25 | 0.429 ± 0.037 | 
6 | QMAVFIHNF [QF9] |  |  | HLA-E binder classification across the SCT assay and the LCL721.221-HLA-E*01:03 assay (MFI over 4000) (HLA-E*01:03 [3]): positive stabilization signal in at least one of the two employed assays
7 | VMAPRTLVL [VL9, reference compound] |  |  | Cell-Surface Stabilization Index E*01:03/VL9 (HLA-E*01:03 [2]; VL9 (VMAPRTLVL) positive control of the experimental day, RMA-S cells with HLA-E*01:03): 2.572 and 2.369 and 2.600 and 2.281
8 | YFSVPLDKDFRKYTA [C227, tHIVconsvX 15-mer peptide […]] | 0.21 | 0.618 ± 0.042 | 
9 | IVRMYSPTSILDIKQ | 0.03 | 0.518 ± 0.033 | 
10 | PEIVIYQYM [PM9] |  |  | Mamu-E*02:04 single-chain trimer surface expression (MFI) relative to non-binding peptide (Mamu-E*02:04): increased the mean fluorescent intensity (MFI) relative to a non-binding peptide; IFN-γ production by CD8+ HC092 STCL cells (CD8+ HC092 STCL cells): 28.3%; PM9-specific HLA-E-restricted CD8+ T-cell responders [4]: one possible responder out of 32 patients; HLA-E*01:03 single-chain trimer MFI relative to VL9 MFI (HLA-E*01:03 [5]; highest increase of the three MHC-E molecules): approximately half of the VL9 MFI; HLA-E*01:03 single-chain trimer surface stabilization (HLA-E*01:03 [5]): increased the mean fluorescent intensity (MFI) relative to a non-binding peptide; HLA-E*01:01 single-chain trimer surface expression (MFI) relative to non-binding peptide (HLA-E*01:01 [6]): increased the mean fluorescent intensity (MFI) relative to a non-binding peptide; HLA-E binder classification across the SCT assay and the LCL721.221-HLA-E*01:03 assay (MFI over 4000) (HLA-E*01:03 [3]): both the SCT assay and over 4000 MFI in the LCL721.221-HLA-E*01:03 assay; Cell-Surface Stabilization Index E*01:03/PM9 (HLA-E*01:03 [2]; PM9 positive control of the experimental day, RMA-S cells with HLA-E*01:03): 0.658 and 0.733 and 0.617 and 0.620
11 | INEEAAEWDRVHPVH [C037, tHIVconsvX 15-mer peptide […]] | 0.30 | 0.419 ± 0.031 | 
12 | QMAVLIHNFKRRGGI [C353, tHIVconsvX 15-mer peptide […]] | 0.17 | 0.632 ± 0.065 | 
13 | GHQAAMQMLKETINE [C032, tHIVconsvX 15-mer peptide […]] | 0.16 | 0.480 ± 0.057 | 
14 | TVCVIWCIH [TH9, reference compound] |  |  | Mamu-E*02:04 single-chain trimer surface expression (MFI) relative to non-binding peptide (Mamu-E*02:04): non-binding; HLA-E*01:03 single-chain trimer surface stabilization (HLA-E*01:03 [5]): non-binding; HLA-E*01:01 single-chain trimer surface expression (MFI) relative to non-binding peptide (HLA-E*01:01 [6]): non-binding
15 | PQDLNTMLNTVGGHQ [C025, tHIVconsvX 15-mer peptide […]] | 0.32 | 0.431 ± 0.038 | 
16 | SALSEGATPQDLNMM [C022, tHIVconsvX 15-mer peptide […]] | 0.14 | 0.382 ± 0.027 | 
17 | QMAVFIHNFKRKGGI [C352, tHIVconsvX 15-mer peptide […]] | 0.26 | 0.641 ± 0.051 | 
18 | TEEKIKALTEICKEM [C182, tHIVconsvX 15-mer peptide […]] | 0.33 | 0.463 ± 0.085 | 
19 | YFSVPLDESFRKYTA [C226, tHIVconsvX 15-mer peptide […]] | −0.15 | 0.669 ± 0.010 | 
20 | INEEAAEWDRLHPVH [C038, tHIVconsvX 15-mer peptide […]] | 0.20 | 0.389 ± 0.039 | 
